Data published in ChEMBL document CHEMBL1201862, “PubChem BioAssay data set” (2004).
Activity calls are given as the source filed them.

Assays:
[1] = test system: BJ; test: cytotoxicity toward BJ-TERT fibroblasts, dose response, cell-based, RAS-independent, luminescence (AID 1933); type: functional; conditions: Homo sapiens
[2] = target: T1, Heat shock factor protein 1 (Mus musculus, UniProt P38532); test: inhibition of MG132-induced HSE-luciferase signal, confirmation, cell-based, NIH3T3, luminescence, dose retest (AID 2382); type: functional;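 further: NIH3T3 fibroblasts with HSF1-driven luciferase reporter stressed by proteasome inhibitor MG132; luminescence from HSF1-driven luciferase expression after 8 hours of MG132 stress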
T1 sequence (P38532 whole entry): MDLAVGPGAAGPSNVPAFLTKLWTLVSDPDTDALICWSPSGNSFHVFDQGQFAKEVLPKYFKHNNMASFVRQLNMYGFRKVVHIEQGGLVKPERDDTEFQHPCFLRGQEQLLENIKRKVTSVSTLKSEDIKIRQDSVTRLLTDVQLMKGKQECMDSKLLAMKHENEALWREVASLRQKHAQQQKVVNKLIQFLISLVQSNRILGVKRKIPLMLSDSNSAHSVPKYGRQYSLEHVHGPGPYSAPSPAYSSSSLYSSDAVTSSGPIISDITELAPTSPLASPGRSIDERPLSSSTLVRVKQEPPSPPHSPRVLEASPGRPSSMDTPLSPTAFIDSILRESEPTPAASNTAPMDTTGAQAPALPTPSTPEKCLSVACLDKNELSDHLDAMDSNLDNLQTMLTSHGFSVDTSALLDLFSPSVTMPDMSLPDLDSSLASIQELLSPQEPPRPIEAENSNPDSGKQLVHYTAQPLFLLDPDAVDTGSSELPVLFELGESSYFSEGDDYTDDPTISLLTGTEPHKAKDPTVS

[3] = test system: BJ; test: cells; type: functional, cell-based; conditions: Homo sapiens
[4] = test system: BJ; test: cytotoxicity toward BJ-TERT-LT-ST fibroblasts, dose response, cell-based, RAS-independent, luminescence (AID 1935); type: functional; conditions: Homo sapiens;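 further: BJ fibroblasts immortalized with TERT plus LT and ST oncogenes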
[5] = cytotoxicity toward DRD oncogenic fibroblasts, dose response, cell-based, non-viral oncogenic, luminescence (AID 1934); type: functional; conditions: Homo sapiens
[6] = cytotoxicity in HEK-293T cells, dose response, cytotoxicity control for TCR NF-kB inhibitor project, luminescence, T-cell screen hits (AID 489026); type: functional, cell-based;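 further: cells exposed to compound about 14 hours before the viability readout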
[7] = A cytotoxicity screen of small molecule inhibitors of the PhoP region in Salmonella typhi identified in the primary screen. [Related pubchem assays: 1850, 1864, 1985 ]; type: functional
[8] = target: T2, Cytochrome P450 1A2 (Homo sapiens, UniProt P05177);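 further: PubChem cytochrome P450 panel assay, CYP1A2 panel member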
T2 sequence (P05177 whole entry): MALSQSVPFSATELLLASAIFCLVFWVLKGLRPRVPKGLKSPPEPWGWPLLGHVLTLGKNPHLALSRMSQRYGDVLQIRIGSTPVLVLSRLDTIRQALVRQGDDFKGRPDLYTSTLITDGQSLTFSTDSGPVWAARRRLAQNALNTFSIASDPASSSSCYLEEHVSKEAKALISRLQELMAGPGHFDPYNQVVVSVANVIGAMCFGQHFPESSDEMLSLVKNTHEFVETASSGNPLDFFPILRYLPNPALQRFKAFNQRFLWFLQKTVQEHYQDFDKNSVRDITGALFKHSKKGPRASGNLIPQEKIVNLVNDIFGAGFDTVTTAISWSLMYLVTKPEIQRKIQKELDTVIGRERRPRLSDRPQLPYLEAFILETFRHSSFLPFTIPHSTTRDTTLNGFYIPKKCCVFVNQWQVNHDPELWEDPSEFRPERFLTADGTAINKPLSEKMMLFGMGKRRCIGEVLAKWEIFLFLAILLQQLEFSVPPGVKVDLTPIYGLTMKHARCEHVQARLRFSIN

[9] = target: Cytochrome P450 2C9 (Homo sapiens, UniProt P11712)
Cytochrome P450 2C9, sequence (P11712 whole entry): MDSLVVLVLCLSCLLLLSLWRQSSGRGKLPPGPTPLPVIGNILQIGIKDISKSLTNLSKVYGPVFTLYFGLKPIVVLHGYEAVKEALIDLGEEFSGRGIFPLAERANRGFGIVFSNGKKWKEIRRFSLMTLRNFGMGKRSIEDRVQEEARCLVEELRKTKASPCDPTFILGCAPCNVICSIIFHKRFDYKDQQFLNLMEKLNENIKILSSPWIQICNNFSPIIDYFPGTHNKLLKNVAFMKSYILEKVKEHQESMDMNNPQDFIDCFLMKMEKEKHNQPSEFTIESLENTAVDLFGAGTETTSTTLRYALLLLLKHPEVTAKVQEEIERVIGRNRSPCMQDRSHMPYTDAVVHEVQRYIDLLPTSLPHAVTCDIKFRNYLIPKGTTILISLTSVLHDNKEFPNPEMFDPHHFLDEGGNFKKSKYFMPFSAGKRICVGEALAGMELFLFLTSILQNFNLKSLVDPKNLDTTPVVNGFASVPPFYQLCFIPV

[10] = target: Cytochrome P450 2C19 (Homo sapiens, UniProt P33261); test: Cytochrome panel assay with activity outcomes. Panel member name: p450-cyp2c19 Compounds with AC50 equal or less than 10 uM are considered active; type: functional
Cytochrome P450 2C19, sequence (P33261 whole entry): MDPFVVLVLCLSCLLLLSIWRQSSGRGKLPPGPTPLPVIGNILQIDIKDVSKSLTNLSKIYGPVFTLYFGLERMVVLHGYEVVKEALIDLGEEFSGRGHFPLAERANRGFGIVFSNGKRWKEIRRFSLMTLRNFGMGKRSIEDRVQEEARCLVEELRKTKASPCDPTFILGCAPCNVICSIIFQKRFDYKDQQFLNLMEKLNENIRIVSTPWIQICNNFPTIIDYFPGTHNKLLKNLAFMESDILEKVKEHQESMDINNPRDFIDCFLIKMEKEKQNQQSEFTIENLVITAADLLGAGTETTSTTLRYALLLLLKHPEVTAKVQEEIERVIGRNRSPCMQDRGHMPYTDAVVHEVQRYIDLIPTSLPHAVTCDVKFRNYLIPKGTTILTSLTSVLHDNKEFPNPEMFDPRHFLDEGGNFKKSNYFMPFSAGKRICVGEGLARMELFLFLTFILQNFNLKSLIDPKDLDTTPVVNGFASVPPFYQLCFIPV

[11] = target: Cytochrome P450 3A4 (Homo sapiens, UniProt P08684);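 further: CYP3A4 tested as one member of a cytochrome P450 panel screen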
Cytochrome P450 3A4, sequence (P08684 whole entry): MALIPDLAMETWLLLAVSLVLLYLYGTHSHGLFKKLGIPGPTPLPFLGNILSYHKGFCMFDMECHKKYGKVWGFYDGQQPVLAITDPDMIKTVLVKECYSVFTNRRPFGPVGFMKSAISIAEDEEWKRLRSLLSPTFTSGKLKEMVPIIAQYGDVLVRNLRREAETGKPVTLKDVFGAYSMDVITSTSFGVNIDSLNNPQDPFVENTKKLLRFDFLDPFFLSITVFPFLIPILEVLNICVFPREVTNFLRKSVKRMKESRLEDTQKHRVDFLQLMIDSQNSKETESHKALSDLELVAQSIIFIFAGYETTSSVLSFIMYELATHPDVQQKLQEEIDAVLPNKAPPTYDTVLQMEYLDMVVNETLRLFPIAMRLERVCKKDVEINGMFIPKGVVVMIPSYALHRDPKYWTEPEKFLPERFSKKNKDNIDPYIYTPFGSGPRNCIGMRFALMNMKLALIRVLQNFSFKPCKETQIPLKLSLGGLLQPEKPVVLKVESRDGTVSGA

[12] = Luminescence Cell-Based Dose Confirmation HTS to Identify Activators of 5'UTR Stem-Loop Driven Alpha-Synuclein mRNA Translation in H4 Neuroglioblastoma Cells. [Related pubchem assays: 1829 (Project Summary), 1814 (Primary HTS)]; type: functional
[13] = Luminescence Cell-Based Dose Response HTS to Identify Activators of Luciferase Translation or Activity in H4 […] Cells. [Related pubchem assays: 1829 (Project Summary), 1814 (Primary HTS)]; type: functional
[14] = test system: H4; test: Luminescence Cell-Based Dose Response HTS to Identify Activators of 5'UTR Stem-Loop Driven Prion Protein mRNA Translation in H4 Neuroglioblastoma Cells. [Related pubchem assays: 1829 (Project Summary), 1814 (Primary HTS)]; type: functional; conditions: Homo sapiens
[15] = inhibitors of firefly luciferase expression or activity, dose response, H4 neuroglioma cells, luminescence (AID 1990); type: functional, cell-based
[16] = Luminescence Cell-Based Dose Response HTS to Identify Inhibitors of 5'UTR Stem-Loop Driven Prion Protein mRNA Translation in H4 Neuroglioblastoma Cells. [Related pubchem assays: 1827 (Project Summary), 1813 (Primary HTS)]; type: functional
[17] = inhibitors of SNCA 5'UTR-driven reporter translation, confirmation, H4 neuroglioma cells, luminescence (AID 1988); type: functional, cell-based
[18] = test system: BJ; test: cytotoxicity toward Ras-transformed BJeLR fibroblasts, dose response, cell-based, alamar blue fluorescence, cherrypicked samples (AID 2631); type: functional; conditions: Homo sapiens;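 further: confirmatory dose-response assay in RAS-dependent BJ fibroblasts engineered with TERT, LT and ST, with cytotoxicity read by fluorescence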
[19] = Shn3 3'UTR reporter inhibitors, dose response, cell-based, Clone20 osteoblasts, firefly luciferase, cherry-picked (AID 624132); type: functional;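 further: firefly luciferase luminescence from reporter carrying the Shn3 3'UTR in osteoblasts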
[20] = control 3'UTR Renilla luciferase suppression, dose response, counter-screen for Shn3 inhibitor project, cell-based, Clone20-Shn3RL, cherry-picked (AID 624133); type: functional
[21] = test system: Streptococcus sp. 'group A'; test: growth inhibition of control SK(-) GAS strain, dose response, counter-screen for streptokinase expression inhibitor project, luminescence, kanamycin, BacTiterGlo, confirmation (AID 1900); type: functional, organism-based
[22] = target: T3, Streptokinase A (Streptococcus pyogenes serotype M1, UniProt P10520); test: S. pyogenes streptokinase expression inhibitors, potency, dose response, plasminogen activation absorbance, OD405 (AID 1914); type: functional, Streptococcus pyogenes M1 GAS;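 further: secreted streptokinase activity via plasminogen activation per viability signal from cell pellet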
T3 sequence (P10520 whole entry): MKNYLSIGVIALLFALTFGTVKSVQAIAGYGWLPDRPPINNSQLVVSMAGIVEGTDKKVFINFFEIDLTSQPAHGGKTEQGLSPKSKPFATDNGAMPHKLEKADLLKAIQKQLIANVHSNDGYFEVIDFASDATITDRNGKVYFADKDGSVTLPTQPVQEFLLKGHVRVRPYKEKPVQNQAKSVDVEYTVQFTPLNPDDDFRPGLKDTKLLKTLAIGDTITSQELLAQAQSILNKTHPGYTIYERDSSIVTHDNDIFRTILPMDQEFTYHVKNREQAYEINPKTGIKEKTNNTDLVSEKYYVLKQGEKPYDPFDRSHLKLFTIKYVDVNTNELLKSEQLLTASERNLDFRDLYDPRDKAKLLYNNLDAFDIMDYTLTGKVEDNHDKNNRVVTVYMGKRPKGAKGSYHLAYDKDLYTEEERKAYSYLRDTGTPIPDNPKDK

[23] = test system: Streptococcus; test: Group A Streptococcus viability loss, dose response, counter-screen for streptokinase expression inhibitor project, luminescence, BacTiterGlo (AID 1915); type: functional, organism-based;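 further: potency for reduction of bacterial viability or growth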
[24] = target: T4, Carboxy-terminal domain RNA polymerase II polypeptide A small phosphatase 1 (Homo sapiens, UniProt Q9GZU7); test: inhibitors of CTDSP1, concentration-response testing, biochemical assay, absorbance-based, actives from ultra-high-throughput screening (AID 540297); type: functional
T4 sequence (Q9GZU7 whole entry): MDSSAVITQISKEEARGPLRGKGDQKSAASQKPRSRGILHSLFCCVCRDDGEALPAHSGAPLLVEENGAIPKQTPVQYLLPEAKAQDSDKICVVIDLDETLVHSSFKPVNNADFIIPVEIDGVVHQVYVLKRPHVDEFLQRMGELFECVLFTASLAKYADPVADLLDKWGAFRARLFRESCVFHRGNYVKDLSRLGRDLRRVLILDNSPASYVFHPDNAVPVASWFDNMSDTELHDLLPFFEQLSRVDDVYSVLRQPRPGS

[25] = target: T5, Calpain-2 catalytic subunit (Sus scrofa, UniProt P43367); test: pig calpain II inhibitor potency, dose response, biochemical, fluorogenic peptide substrate (AID 1420); type: functional
T5 sequence (P43367 whole entry): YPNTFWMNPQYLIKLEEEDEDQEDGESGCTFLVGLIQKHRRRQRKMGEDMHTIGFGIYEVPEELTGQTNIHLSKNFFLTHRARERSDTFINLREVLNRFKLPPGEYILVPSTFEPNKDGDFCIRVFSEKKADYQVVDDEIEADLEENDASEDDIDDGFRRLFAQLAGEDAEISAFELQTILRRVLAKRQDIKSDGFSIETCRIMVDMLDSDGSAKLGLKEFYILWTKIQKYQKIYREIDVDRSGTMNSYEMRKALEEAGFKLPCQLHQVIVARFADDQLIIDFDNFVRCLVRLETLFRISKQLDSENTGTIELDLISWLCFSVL

For `Cc1ccc(C(=O)Nc2cc3ccccc3oc2=O)cc1`, the EC50 [1] was 18.4 µM (active), the EC50 [2] was 0.21 µM (active) and the EC50 [3] was 9.35 µM (active). For the same molecule, the EC50 [4] was 24 µM (active), the EC50 [5] was 6.97 µM (active) and the IC50 [6] was > 80 µM (inactive).
For `C=C(C)Cn1c(-c2ccc(OC)cc2)nc2ccccc21`, the EC50 [7] was > 50 µM (active).
With `COc1ccccc1N1CCN(C[C@@H]2CN3C(=O)N(C)c4ccccc4C3=N2)CC1` the AC50 [8] was 31.6 µM (inconclusive) and the AC50 [9] was “inconclusive”.
In the case of `COc1ccc(/C=C/C(=O)Nc2cc(C(F)(F)F)ccc2Cl)cc1`, the AC50 [10] is reported as 0.00631 µM (inconclusive), the AC50 [11] is reported as 10 µM (inconclusive) and the AC50 [9] is reported as “inconclusive”.
With `COc1cc(OC)cc(C(=O)Nc2ccccc2C(=O)N2CCCC2)c1` the EC50 [12] was > 120 µM (not active), the EC50 [13] was > 120 µM (not active) and the EC50 [14] was > 120 µM (not active). The AC50 [8] was 14.1 µM (inconclusive) and the AC50 [9] was “inconclusive”.
For `Cc1noc(C)c1COc1cccc(C(=O)OCC(=O)N2CC(=O)Nc3ccccc32)c1`, the IC50 [6] was > 80 µM (inactive).
With `CCO[C@@H]1OC(C(=O)NCc2nc3ccccc3[nH]2)=C[C@H](C(C)(C)C)[C@H]1CCCO` the EC50 [15] was > 60 µM (not active), the EC50 [16] was 10.5 µM (active) and the EC50 [17] was 0.297 µM (inconclusive). The IC50 [6] was > 80 µM (inactive).
For `CS(=O)(=O)c1cnc2c(-c3ccc(F)cc3)cnn2c1N`, the EC50 [7] was > 50 µM (active) and the AC50 [11] was 28.2 µM (inconclusive).
For `CC1CCCCC1N(C)C1CCN(C(=O)CNC(=O)/C=C/c2cccc(Cl)c2)CC1` (configuration not stated), the EC50 [1] was 2.72 µM (active), the EC50 [3] was 2.79 µM (active) and the EC50 [4] was 2.63 µM (inconclusive). The EC50 [5] was 3.46 µM (active) and the EC50 [18] was 1.51 µM (active).
For `Cc1ccc(N2C(=O)c3cccc4c([N+](=O)[O-])ccc(c34)C2=O)c2cccnc12`, the EC50 [1] was 2.21 µM (inconclusive), the EC50 [3] was 26.5 µM (inconclusive) and the EC50 [4] was 3.88 µM (inconclusive). The EC50 [5] was 5.37 µM (inconclusive), the EC50 [18] was 0.782 µM (active) and the AC50 [19] was 5.68 µM (active). The AC50 [20] was 29.5 µM (active).
For `Cc1ccc2[nH]c(O)c(N=NC(=O)c3ccc(NS(=O)(=O)c4cccs4)cc3)c2c1`, the EC50 [21] was 0.429 µM (active), the EC50 [22] was > 150 µM (not active) and the EC50 [23] was 16.3 µM (active). For the same molecule, the IC50 [24] was 11.5 µM (active).
For `O=C1CC(c2cccc(Br)c2)c2cc3c(cc2N1)CCC3` (configuration not stated), the IC50 [25] was > 50 µM (not active) and the IC50 [6] was > 80 µM (inactive).
